Reference: US20240294529A1, “6H-IMIDAZO[1,2-A]PYRROLO[2,3-E]PYRIDINE DERIVATIVES FOR USE IN THERAPY” (SANOFI, priority 2021, published 2024)

Experiments:
Nurr1 = molecular target: T1, Nurr1 (Mus musculus, UniProt Q06219); test: Activity on neuroblastomas cell lines - Nurr1 modulation (N2A cells, NBRE8x luciferase reporter); type: cell-based; settings: N2A cells stably transfected with NBRE8x-luciferase, 24 hours with compound; read-out: EC50 activity, Nurr1 modulation in N2A neuroblastoma cells
T1 construct: N2A cells obtained from ATCC were stably transfected with NBRE8x (50-AAGGTCA-30) in tandem coupled with luciferase reporter gene; host or cells: N2A neuroblastoma cells
T1 sequence (Q06219 whole entry): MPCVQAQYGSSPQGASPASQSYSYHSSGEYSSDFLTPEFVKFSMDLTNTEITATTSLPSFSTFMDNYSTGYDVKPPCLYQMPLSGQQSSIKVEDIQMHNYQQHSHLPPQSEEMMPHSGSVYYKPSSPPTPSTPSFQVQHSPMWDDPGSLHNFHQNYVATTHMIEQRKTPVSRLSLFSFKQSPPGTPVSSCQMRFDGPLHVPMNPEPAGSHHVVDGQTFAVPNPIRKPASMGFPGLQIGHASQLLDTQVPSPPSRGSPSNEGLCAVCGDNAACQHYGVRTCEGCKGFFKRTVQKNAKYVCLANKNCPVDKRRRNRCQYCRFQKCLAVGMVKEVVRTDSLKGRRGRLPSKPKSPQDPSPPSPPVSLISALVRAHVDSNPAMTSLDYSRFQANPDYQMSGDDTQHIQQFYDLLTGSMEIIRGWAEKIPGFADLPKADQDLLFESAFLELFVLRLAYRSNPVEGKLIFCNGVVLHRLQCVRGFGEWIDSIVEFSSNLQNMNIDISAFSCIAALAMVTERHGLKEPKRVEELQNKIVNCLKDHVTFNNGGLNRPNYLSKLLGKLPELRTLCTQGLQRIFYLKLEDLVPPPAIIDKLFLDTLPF
Protocol: N2A cells obtained from ATCC were stably transfected with NBRE8x (50-AAGGTCA-30) in tandem coupled with luciferase reporter gene. Each NBRE sequence was separated with 5 nucleotides. N2A were grown in 75 cm^2 flask in DMEM containing 10% calf serum, 4.5 g/L glucose and 0.4 mg/ml geneticin. After one week in culture cells were harvested by trypsinization (0.25%, 30 minutes) then plated onto 96 well dishes at the density of 60,000 cell per well in 75 μl of DMEM without phenol red containing 4.5 g/l glucose, 10% lipid free serum from Hyclone. After 24 hours compounds were added (25 μl/well) at different concentration for further 24 hours. Measurement is performed by adding 100 μl of Steadylite per well for 30 minutes and plates are read using microplate […] reader.

hNur77 = molecular target: T2, hNur77 (Homo sapiens, UniProt P22736); test: Activity on HEK-Nur77 modulation (Gal4-DBD luciferase reporter in stable HEK293 cells); type: cell-based; settings: 24 hours with compound
T2 construct: The pFR-Luc (Gal4 UAS luciferase) reporter sits in the same cells, and expression is induced by doxycycline
T2 sequence (P22736 360-598 limits assumed): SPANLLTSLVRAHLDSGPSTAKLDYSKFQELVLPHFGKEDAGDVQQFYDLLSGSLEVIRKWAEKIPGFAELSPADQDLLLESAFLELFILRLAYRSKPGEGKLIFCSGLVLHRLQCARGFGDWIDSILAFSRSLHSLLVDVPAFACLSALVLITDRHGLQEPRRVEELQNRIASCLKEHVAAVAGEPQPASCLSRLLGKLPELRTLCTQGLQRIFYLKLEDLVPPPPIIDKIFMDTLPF
Protocol: Stable HEK293 cells expressing Gal4-DBD-FL-NOT, -hNur77, -hNOR1 and Pfr-Luc were obtained by limit dilution. HEK cells were grown in 75 cm^2 flask in DMEM high glucose 30-2002™ containing 10% calf serum, hygromycin at a content of 250 μg/ml, doxycyclin at a content of 2 μg/ml (to induce expression) and 0.4 mg/ml of penicillin. After one week in culture, cells were harvested by trypsinization then plated onto 96 well dishes at the density of 20,000 cell per well in 75 μl of culture medium. After 24 hours compounds were added (25 μl per well) at different concentration for further 24 hours. The medium was removed and measurement was performed by adding 50 μl of Steadyglo (Promega, E2510) with 50 μl PBS per well for 15 minutes and plates were read using microplate luminescent reader.

Row | EC50 (Nurr1) [nM] | IC50 (hNur77) [nM] | melting point [°C] | SMILES
1 | 0.2 | 10000 | 252 | Clc1ccc(-c2nc3ccc4[nH]ccc4n3c2Cl)cc1 [compound of formula (1), 1-Chloro-2-(4-chlorophenyl)-6H-imidazo[1,2-a]pyrrolo[2,3-e]pyridine]
2 | 0.03 | 300 | – | Clc1ccc(-c2cn3c(ccc4[nH]ccc43)n2)cc1 [compound of formula (2), 2-(4-Chlorophenyl)-6H-imidazo[1,2-a]pyrrolo[2,3-e]pyridine]
